Source: patent US10882856B2 (BeiGene, Ltd., priority 2017, dated 2021)
Structures can show the parent of a compound that is named as a salt.

How the values were obtained:
[1] = target: T1, IDO1 (Homo sapiens, UniProt P14902); test: Hela cell-based IDO1 assay; settings: Hela cells
Summary of the method: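 HeLa cells were plated at 8000 per well in 96-well plates containing phenol red-free DMEM with 10% FBS, and after 4 hours compound dilutions made in DMSO were added together with IFN-γ (final 100 ng/mL) and 0.4 mM L-Trp before 48 hours at 37 °C, 5% CO2. Supernatants were deproteinised with trichloroacetic acid, mixed with 2% 4-(dimethylamino)benzaldehyde and read at 480 nm for kynurenine. Four-parameter logistic fits were run in XLfit. Potency was derived from these fits.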

[2] = target: T1, IDO1; test: IDO1 enzymatic assay; format: biochemical; parameters: His tag (N); made in house; host or cells: E. coli; settings: read-out: Enzyme IC50 IDO1
Summary of the method: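 Recombinant N-terminally His-tagged IDO1 purified from E. coli (50 nM) was incubated with compound or DMSO and 1.3 mM D-tryptophan, 5 mM L-ascorbic acid, methylene blue and 0.4 mg/mL catalase. The buffer was 50 mM potassium phosphate pH 7.5 with 0.1% BSA, at 24 °C for 1.5 hours. N'-formylkynurenine formation was then read continuously at 321 nm for 1 hour, and activity was taken as the slope. IC50 was calculated from remaining enzyme activity across increasing compound concentrations.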

[3] = target: T2, cellular TDO2 in HEK293-TDO2 cells (Homo sapiens, UniProt P48775); test: 293-TDO2 cell-based assay (Kyn colorimetric); settings: 48 hours of incubation
T2 construct: expressed in transfected cells; host or cells: HEK293 (ATCC), stably transfected
T2 sequence (P48775 whole entry): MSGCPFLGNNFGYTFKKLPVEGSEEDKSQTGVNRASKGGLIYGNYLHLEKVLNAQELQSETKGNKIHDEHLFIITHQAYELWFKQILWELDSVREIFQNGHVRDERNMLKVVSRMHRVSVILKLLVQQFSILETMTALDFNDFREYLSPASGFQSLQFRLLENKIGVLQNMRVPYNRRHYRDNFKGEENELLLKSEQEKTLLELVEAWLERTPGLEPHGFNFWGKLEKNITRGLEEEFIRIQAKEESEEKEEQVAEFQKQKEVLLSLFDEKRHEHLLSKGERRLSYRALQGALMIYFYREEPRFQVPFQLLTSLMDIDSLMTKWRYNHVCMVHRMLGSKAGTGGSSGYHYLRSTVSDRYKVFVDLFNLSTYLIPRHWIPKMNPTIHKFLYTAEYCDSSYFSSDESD
Protocol: The inhibitory activity of TDO2 inhibitors is determined by using a colorimetric reaction to measure Kyn generated from L-Trp (L-Tryptophon) oxidation by cellular TDO2 in HEK293-TDO2 cells stably transfected with a plasmid expression of Tryptophan 2,3-dioxygenase (for short, 293-TDO2).
HEK293 cells were obtained from the American Type Culture Collection and 293-TDO2 were recovered in 10% FBS-containing phenol red-free DMEM medium. Cells were plated onto a 96-well plate (100 μl/well) at 10000 cells per well and kept at 37° C. in a humidified incubator supplied with 5% CO2. 4 hours later, Compounds at different concentrations diluted in dimethylsulfoxide (DMSO) were added to plate. Cells were kept at 37° C. in a humidified incubator supplied with 5% CO2. After 48 hours of incubation, 100 μl supernatant from each well was removed to a new plate. The protein in the medium was precipitated with the addition of 8 μl 6N trichloroacetic acid. The plate was incubated at 60° C. for 30 minutes and then centrifugation at 2500 rpm for 10 minutes to remove sediments. 80 μl supernatants were carefully removed to a new clean plate and added with an equal volume of 2% 4-(Dimethylamino) benzaldehyde (D2004, sigma) dissolved in glacial acetic acid. The absorbance at 480 nm wavelength derived from Kyn was measured using a PHERAstar FS plate reader (BMG LABTECH). The IC50 for each compound was derived from fitting the dose-response data to the four-parameter logistic model by using XLfit software (IDBS).

T1 sequence (P14902 whole entry): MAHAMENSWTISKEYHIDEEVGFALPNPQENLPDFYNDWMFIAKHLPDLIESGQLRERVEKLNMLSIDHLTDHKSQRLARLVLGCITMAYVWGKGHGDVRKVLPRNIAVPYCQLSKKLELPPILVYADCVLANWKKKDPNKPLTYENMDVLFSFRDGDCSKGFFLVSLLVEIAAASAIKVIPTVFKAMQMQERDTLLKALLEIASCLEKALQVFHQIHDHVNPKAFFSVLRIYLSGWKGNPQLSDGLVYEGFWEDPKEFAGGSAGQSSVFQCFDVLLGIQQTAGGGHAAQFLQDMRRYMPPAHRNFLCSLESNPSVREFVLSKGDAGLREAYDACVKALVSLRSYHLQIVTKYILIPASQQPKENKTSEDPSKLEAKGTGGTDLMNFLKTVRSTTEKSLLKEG

Compound	EC50 [1]	IC50 [2]	EC50 [3]
O[C@H](c1c(C2CC2)ccc2cncn12)C1CCN(c2cccc(Cl)c2)CC1 (single isomer, unassigned) [Example D173a]	0.033 µM	0.018 µM	> 10 µM
OC(c1c(C2CC2)ccc2cncn12)C1CCC(c2ccc(F)c(F)c2F)CC1 (centres unmarked) [Example D145, (6-cyclopropylimidazo[1,5-a]pyridin-5-yl)(4-(2,3,4-trifluorophenyl)cyclohexyl)methanol]	0.462 µM	0.054 µM	> 10 µM
N#Cc1ccc(C2CCC(C(O)c3c(C4CC4)ccc4cncn34)CC2)cc1 (centres unmarked) [Example D110, 4-(4-((6-cyclopropylimidazo[1,5-a]pyridin-5-yl)(hydroxy)methyl)cyclohexyl)benzonitrile]	0.373 µM	0.04 µM	> 10 µM
COc1ccc([C@H]2CC[C@H](C(O)c3c(C4CC4)ccc4cncn34)CC2)cc1Cl (single isomer, unassigned) [Example D148b, hydrochloride]	7.01 µM	> 10 µM	> 10 µM
O[C@H](c1c(C2CC2)ccc2cncn12)C1CCN(c2ccc(F)c3ncccc23)CC1 (single isomer, unassigned) [Example D175a]	0.0077 µM	0.012 µM	> 10 µM
COc1ccc([C@H]2CC[C@H]([C@@H](O)c3c(C4CC4)ccc4cncn34)CC2)c(Cl)c1 (single isomer, unassigned) [Example D147b]	4.5 µM	> 10 µM	> 10 µM
OC(c1c(C2CC2)ccc2cncn12)C1CCC(c2ccc3sccc3c2)CC1 (centres unmarked) [Example D133, (4-(benzo[b]thiophen-5-yl)cyclohexyl)(6-cyclopropylimidazo[1,5-a]pyridin-5-yl)methanol]	0.496 µM	0.044 µM	> 10 µM
OC(c1c(C2CC2)ccc2cncn12)C1CCN(c2cccc3ncncc23)CC1 (centres unmarked) [Example D180, (6-cyclopropylimidazo[1,5-a]pyridin-5-yl)(1-(quinazolin-5-yl)piperidin-4-yl)methanol]	0.04 µM	0.03 µM	> 10 µM
OC(c1c(C2CC2)ccn2cncc12)C1CCN(c2ccnc3ccccc23)CC1 (centres unmarked) [Example C150, (7-cyclopropylimidazo[1,5-a]pyridin-8-yl)(1-(quinolin-4-yl)piperidin-4-yl)methanol]	1.51 µM	0.16 µM	> 10 µM
O=C(COc1ccc([C@H]2CC[C@H]([C@H](O)c3c(C4CC4)ccc4cncn34)CC2)cc1)c1ccccc1 [Example D152, 2-(4-((1S,4r)-4-((S)-(6-cyclopropylimidazo[1,5-a]pyridin-5-yl)(hydroxy)methyl)cyclohexyl)henoxy)-1-phenylethan-1-one]	0.118 µM	0.037 µM	> 10 µM
O=C(O)c1ccc([C@H]2CC[C@H]([C@@H](O)c3c(C4CC4)ccc4cncn34)CC2)cc1 (single isomer, unassigned) [Example D111b]	> 10 µM	1.2 µM	> 10 µM
OC(c1c(C2CC2)ccn2cncc12)C1CCN(c2ccc(Cl)c3ncccc23)CC1 (single isomer, unassigned) [Example C154a]	0.018 µM	0.016 µM	> 10 µM
CC(C)c1ccc2cncn2c1[C@H](O)[C@H]1CC[C@H](c2ccc(Cl)cc2)CC1 (single isomer, unassigned) [Example D115b]	5.68 µM	4.3 µM	> 10 µM
OCC(CCl)Oc1ccc(C2CCC(C(O)c3c(C4CC4)ccc4cncn34)CC2)cc1 (centres unmarked) [Example D108, 3-chloro-2-(4-(4-((6-cyclopropylimidazo[1,5-a]pyridin-5-yl) (hydroxy)methyl)cyclohexyl)phenoxy)propan-1-ol]	0.072 µM	0.03 µM	> 10 µM
CC(C)c1ccc2cncn2c1C(O)C1CCC(c2cccc(Cl)c2)CC1 (centres unmarked) [Example D168, (4-(3-chlorophenyl)cyclohexyl)(6-isopropylimidazo[1,5-a]pyridin-5-yl)methanol]	0.042 µM	0.038 µM	> 10 µM
O[C@@H](c1c(C2CC2)ccc2cncn12)[C@H]1CC[C@H](c2ccc3sccc3c2)CC1 (single isomer, unassigned) [Example D133b]	8.9 µM	> 10 µM	> 10 µM

Compound	EC50 [1]	IC50 [2]	EC50 [3]
CN(C)C(=O)c1ccc([C@H]2CC[C@H]([C@H](O)c3c(C4CC4)ccc4cncn34)CC2)cc1 (single isomer, unassigned) [Example D125a]	0.46 µM	0.014 µM	> 10 µM
O[C@@H](c1c(C2CC2)ccc2cncn12)[C@H]1CC[C@H](c2ccc3ncccc3c2)CC1 (single isomer, unassigned) [Example D157b]	> 10 µM	> 10 µM	> 10 µM
O[C@@H](c1c(C2CC2)ccc2cncn12)[C@H]1CC[C@H](c2ccnc3ccccc32)CC1 (single isomer, unassigned) [Example D140b]	1.75 µM	1.8 µM	> 10 µM
OC(c1c(C2CC2)ccc2cncn12)C1CCN(c2ccc3ncncc3c2)CC1 (centres unmarked) [Example D181, (6-cyclopropylimidazo[1,5-a]pyridin-5-yl)(1-(quinazolin-6-yl)piperidin-4-yl)methanol]	1.02 µM	0.031 µM	> 10 µM
O=C(O)c1ccc([C@H]2CC[C@H]([C@H](O)c3c(C4CC4)ccc4cncn34)CC2)cc1 (single isomer, unassigned) [Example D111a]	0.351 µM	0.017 µM	> 10 µM
N#Cc1ccc(N2CCC(C(O)c3c(C4CC4)ccn4cncc34)CC2)cc1 (centres unmarked) [Example C144, 4-(4-((7-cyclopropylimidazo[1,5-a]pyridin-8-yl)(hydroxy)methyl)piperidin-1-yl)benzonitrile]	0.748 µM	0.04 µM	> 10 µM
O[C@H](c1c(C2CC2)ccc2cncn12)[C@H]1CC[C@H](c2ccc(F)cc2F)CC1 (single isomer, unassigned) [Example D127a]	0.083 µM	0.016 µM	> 10 µM
COc1ccc([C@H]2CC[C@H](C(O)c3c(C4CC4)ccc4cncn34)CC2)c(F)c1 (single isomer, unassigned) [Example D146a]	0.122 µM	0.019 µM	> 10 µM
OC(c1c(C2CC2)ccc2cncn12)C1CCC(c2ccc3ccccc3c2)CC1 (centres unmarked) [Example D136, (6-cyclopropylimidazo[1,5-a]pyridin-5-yl)(4-(naphthalen-2-yl)cyclohexyl)methanol]	0.358 µM	0.051 µM	> 10 µM
OC(c1c(C2CC2)ccn2cncc12)C1CCC(c2ccc(F)c(Cl)c2)CC1 (centres unmarked) [Example C132, (4-(3-chloro-4-fluorophenyl)cyclohexyl)(7-cyclopropylimidazo[1,5-a]pyridin-8-yl)methanol]	0.384 µM	0.12 µM	> 10 µM
O[C@@H](c1c(C2CC2)ccn2cncc12)[C@H]1CC[C@H](c2cccc3ncccc32)CC1 (single isomer, unassigned) [Example C126b]	6.05 µM	1.9 µM	> 10 µM
COc1ccc([C@H]2CC[C@H](C(O)c3c(C4CC4)ccc4cncn34)CC2)c2ccccc12 (single isomer, unassigned) [Example D139b]	4.47 µM	> 10 µM	> 10 µM
OC(c1c(C2CC2)ccc2cncn12)[C@H]1CC[C@H](c2cccc(F)c2F)CC1 (single isomer, unassigned) [Example D132b]	> 10 µM	7.5 µM	–
O[C@H](c1c(C2CC2)ccc2cncn12)C1CCN(c2ccc(Cl)c3ncccc23)CC1 (single isomer, unassigned) [Example D178a]	0.0097 µM	–	> 10 µM
O[C@H](c1c(C2CC2)ccc2cncn12)C1CCN(c2ccccc2)CC1 (single isomer, unassigned) [Example D170a]	0.022 µM	–	> 10 µM
OC(c1c(C2CC2)ccn2cncc12)C1CCC(c2ccc(F)c(F)c2)CC1 (centres unmarked) [Example C131, (7-cyclopropylimidazo[1,5-a]pyridin-8-yl)(4-(3,4-difluorophenyl)cyclohexyl)methanol]	–	0.11 µM	> 10 µM
